According to publication PMC7662321, “Andrographolide and Its 14-Aryloxy Analogues Inhibit Zika and Dengue Virus Infection” (Molecules, 2020):
Read-outs that look alike come from different tables or passages of the source.

How the values were obtained:
DENV 2 = DENV 2 viral production in HEK293T/17 cells by standard plaque assay; type: cell-based, dengue virus; details: for Selective Index (SI): DENV, CC50 and EC50 in HEK293T/17 cells; for EC50: Dengue virus, read-out: EC50 against DENV 2 infection; for DENV 2 viral production, concentration dependence: HEK293T/17, MOI 5, 1 to 100 µM
Experimental: The effects of the compounds on DENV-2 infection were evaluated using HEK293T/17 as host cells at MOI of 5. The cells were infected with DENV 2 for 2 h and then the cells were incubated with the compounds at non-cytotoxic (or morphology altering) concentrations of 10 and 25 μM of ZAD-1 and ZAD-3, or 25 and 50 μM of ZAD-2, or 50 and 75 μM of andrographolide or 0.1% DMSO vehicle control. After 24 h of treatment, cells were harvested for determination of the percentage of infection by flow cytometry, while the culture supernatants were collected to determine the viral production.
Thus, the EC50 values of ZAD-1 and andrographolide were determined against ZIKV and DENV 2. For ZIKV, A549 cells were infected with ZIKV at MOI 5 and after 2 h of infection, the cells were incubated with ZAD-1 or andrographolide at a range of concentrations (1 to 100 µM) for 24 h, after which the supernatants were collected for determination of EC50 values by standard plaque assay. Both ZAD-1 and andrographolide reduced viral production in a dose-dependent manner (Figure 4A). […] For DENV 2, HEK293T/17 cells were infected with DENV 2 at MOI 5 for 2 h and followed by incubation with ZAD-1 or andrographolide at a range of concentrations (1 to 100 µM) for 24 h. […] The EC50 value for andrographolide in DENV infection is consistent with our previous study undertaken in HepG2 and HeLa cells with the same virus.
DENV 2 (strain 16681) and ZIKV (strain SV0010/15) virus stocks were propagated in C6/36 cells previously described, and virus titers were determined by standard plaque assay as described previously using Vero cells for ZIKV and LLC-MK2 cells for DENV.
(§1) HEK293T/17 or A549 cells were cultured in six-well plates under standard conditions until the cells reached 80% confluence. HEK293T/17 cells were infected with DENV 2, while A549 cells were infected with ZIKV Thai strain at MOI 5 for 2 h at 37 °C and 5% CO2 in culture medium without FBS. Mock infection was undertaken in parallel. After the infection period, the medium was removed and replaced with complete medium (including FBS) containing 0.1% DMSO (no treatment control) or the appropriate concentration of each compound and cells were again incubated under standard conditions. At 24 h post-treatment, cells were harvested for determination of effects of compounds on percentage of infection and supernatant was collected for determination of viral productivity. All experiments were undertaken independently in triplicate with duplicate plaque assay.

ZIKV = experiment: Percentage of ZIKV infection of A549 cells by flow cytometry; type: cell-based, Zika virus; details: A549, MOI 5, 10 and 25 µM, 24 h, vs vehicle
Experimental: To confirm the effects of andrographolide and the andrographolide analogues on ZIKV infection, A549 cells were infected with ZIKV at MOI of 5 for 2 h, and subsequently treated with the compounds at concentrations of 10 and 25 μM or with vehicle for 24 h. The cells were harvested for determination of the percentage of infection by flow cytometry, while the supernatants were collected for determination of viral titer by standard plaque assay.
as §1
Mock- or viral-infected cells (with or without compound treatment) were harvested at an appropriate time point then incubated with 10% normal goat serum (NGS; Gibco Invitrogen) in PBS-immunofluorescence assay (IFA) buffer on ice for 30 min. The cells were washed with 800 µL of 1% BSA/PBS-IFA and fixed with 200 µL of 4% paraformaldehyde in PBS-IFA at room temperature in the dark for 20 min. After washing with 800 µL of 1% BSA/PBS-IFA, cells were permeabilized with 200 µL of 0.2% Triton X-100 in PBS-IFA for 10 min at room temperature in the dark. Subsequently, the cells were washed with 800 µL of 1% BSA/PBS-IFA followed by overnight incubation with 50 µL of primary antibody (1:150 dilution of pan-specific anti-dengue virus E protein antibody HB114 for DENV and 1:2 dilution of anti-flavivirus antibody HB112 for ZIKV). After washing twice with 800 µL of 1% BSA/PBS-IFA, the cells were incubated with 50 µL of a goat anti-mouse IgG conjugated with fluorescein isothiocyanate (FITC; KPL, Guilford, UK) diluted 1:40 with 1% BSA/PBS-IFA at room temperature in the dark for 1 h. The cells were washed twice with 800 µL of 1% BSA/PBS-IFA and resuspended in 100 µL of PBS-IFA. The fluorescence signal was analyzed by flow cytometry on a BD FACalibur cytometer (Becton Dickinson, BD Biosciences, San Jose, CA, USA) using CellQuest™ software (Version 6). All experiments were undertaken independently in triplicate. All raw flow cytometry data plots are provided in Supplementary Figures S13–S19.

PGK1 = experiment: 2D-PAGE proteomic analysis of treated A549 cells, PGK1 spot; type: cell-based, human; details: A549, 25 µM, 24 h
Experimental: A549 cells were therefore treated with either vehicle (0.025% DMSO), or with 25 μM of andrographolide or ZAD-1, and at 24 h post-treatment, proteins were prepared and subjected to two-dimension polyacrylamide gel electrophoresis (2D-PAGE). The experiment was undertaken independently in triplicate and representative gels are shown Figure 5, with all replicates being shown in Supplementary Figure S12. […] All of these protein spots were cut from the gels and then subjected to in-gel tryptic digestion followed by mass spectrometry. MASCOT (Matrix Science Inc., Boston, MA, USA) search of the resultant masses identified 4 proteins (Table 3), namely heat shock protein 70 kDa 1A (HSPA1A), phosphoglycerate kinase 1 (PGK1), transketolase (TKT) and nuclear transport protein of GTP-binding nuclear protein Ran (Ran).
2D-PAGE and mass spectroscopic identification of differentially expressed spots was undertaken essentially as previously described. […] Image data were analyzed using Image Master™ 2D Platinum software version 7.0 (GenBio, Geneva, Switzerland). Each spot was evaluated on intensity, volume and area. […] After tryptic in-gel digestion, peptide masses were determined by LC-MS/MS using SYNAPT high definition MS (HDMS) (Waters Corp., Milford, MA, USA).

| SMILES | Selective Index (SI) (DENV 2) | EC50 (DENV 2; HEK293T/17, 24 h) [µM] | DENV 2 viral production, concentration dependence (DENV 2; 24 h) | number of ZIKV-infected cells (percentage of infection) (ZIKV) | Intensity Level, spot 3 PGK1 (PGK1) | EC50 (DENV 2; HEK293T/17 cells, MOI 5, 24 h treatment post-infection, plaque assay) [µM] | DENV 2 viral production, comparison among compounds (DENV 2; HEK293T/17, MOI 5, 25 µM, 24 h) |
| --- | --- | --- | --- | --- | --- | --- | --- |
| C=C1CC[C@@H]2[C@](C)(CO)[C@H](O)CC[C@@]2(C)[C@@H]1C/C=C1/C(=O)OC[C@H]1O [Andrographolide] | 8.4 | 35.2 ± 2.5 | dose-dependent reductions | significantly reduced | 1053.31 |  |  |
| C=C1CC[C@@H]2[C@]3(C)COC(C)(C)O[C@@H]3CC[C@@]2(C)[C@@H]1C/C=C1/C(=O)OC[C@@H]1Oc1c(Cl)cc(Cl)c2ccc(C)nc12 [ZAD-1] | 6.6 |  | dose-dependent reductions | significantly reduced | 2509.31 | 22.6 ± 1.8 | greatest reduction |
